Patent publication US9682083B2, “Pyrrolo[2,3-D]pyrimidine derivatives, process for their preparation and their use as kinase inhibitors” (NERVIANO MEDICAL SCIENCES S.R.L., priority 2013, dated 2017)

How the values were obtained:
Format in all cases: cell-based
[1] = system: MZ-CRC-1 medullary thyroid carcinoma, harboring a mutated RET-M918T receptor; assay: In vitro cell proliferation assay (CellTiterGlo), MZ-CRC-1; settings: Homo sapiens, antiproliferative activity, 144 h exposure
Procedure: (§1) In Vitro Cell Proliferation Assay
(§2) To evaluate the antiproliferative activity of a compound of formula (I) the following human cell lines were used: A2780 ovarian carcinoma; TT and MZ-CRC-1 medullary thyroid carcinoma, harboring a mutated RET-C634W and RET-M918T receptor respectively; LC-2/ad human lung adenocarcinoma, harboring the CCDC6-RET fusion protein. Exponentially growing cells were seeded and incubated at 37° C. in a humidified 5% CO2 atmosphere using appropriate medium supplemented with 10% Fetal Bovine Serum. 24 hours following cell plating, scalar doses of the compounds dissolved in 0.1% DMSO were added to the medium and cells were exposed to drugs for either 72 hours (A2780) or 144 hours (TT, MZ-CRC-1 and LC-2/ad), according to their different proliferation rate. At the end of treatment, cell proliferation was determined by an intracellular ATP monitoring system (CellTiterGlo—Promega), following manufacturer's instructions, and using an Envision instrument (PerkinElmer) as reader. Data obtained from compound versus vehicle treated cells were compared using Assay Explorer (Symyx Technologies Inc) software. IC50 values were calculated using sigmoidal interpolation curve fitting.
(§3) In the following Table A the antiproliferative activity of representative compounds of formula (I) on two medullary thyroid carcinoma cell lines expressing the aforementioned mutated forms of RET (TT and MZ-CRC-1) and on one lung adenocarcinoma cell line harboring the aforementioned fusion form of RET (LC-2/ad) is reported. As control, the antiproliferative activity of the same compounds on an unrelated non RET-dependent cell line (A2780) is reported. All these compounds show remarkable activity on RET-driven cellular models with respect to the unrelated ones.

[2] = system: LC-2/ad human lung adenocarcinoma, harboring the CCDC6-RET fusion protein; assay: In vitro cell proliferation assay (CellTiterGlo), LC-2/ad; settings: antiproliferative activity, 144 h exposure
Procedure: as §1, §2, §3

[3] = system: TT medullary thyroid carcinoma, harboring a mutated RET-C634W receptor; assay: In vitro cell proliferation assay (CellTiterGlo), TT; settings: Homo sapiens, antiproliferative activity, 144 h exposure
Procedure: as §1, §2, §3

A2780 ovarian carcinoma = assay: In vitro cell proliferation assay (CellTiterGlo), A2780 control line; settings: Homo sapiens, antiproliferative activity, 72 hours exposure, non RET-dependent control cell line
Procedure: as §1, §2, §3

Structure (SMILES) | IC50 [1] [µM] | IC50 [2] [µM] | IC50 [3] [µM] | IC50 (A2780 ovarian carcinoma) [nM]
Nc1ncnc2c1c(C#Cc1cccc(C(=O)NC3CC3)c1)cn2CC(F)(F)F [cmpd 36, 3-{[4-amino-7-(2,2,2-trifluoroethyl)-7H-pyrrolo[2,3-d]pyrimidin-5-yl]ethynyl}-N-cyclopropylbenzamide] | 0.166 | 0.058 | 0.053 | 1730
Nc1ncnc2c1c(C#Cc1cccc(C(=O)NC3CC3)c1)cn2CCO [cmpd 37, 3-{[4-amino-7-(2-hydroxyethyl)-7H-pyrrolo[2,3-d]pyrimidin-5-yl]ethynyl}-N-cyclopropylbenzamide] | 0.271 | 0.115 | 0.109 | 6790
CC(C)n1cc(C#Cc2cccc(C(=O)NC3CC3)c2)c2c(N)ncnc21 [cmpd 40, 3-{[4-amino-7-(propan-2-yl)-7H-pyrrolo[2,3-d]pyrimidin-5-yl]ethynyl}-N-cyclopropylbenzamide] | 0.049 | 0.033 | 0.022 | 1930
Cc1ccc(C(=O)NC2CC2)cc1C#Cc1cn(CC(F)(F)F)c2ncnc(N)c12 [cmpd 52, 3-{[4-amino-7-(2,2,2-trifluoroethyl)-7H-pyrrolo[2,3-d]pyrimidin-5-yl]ethynyl}-N-cyclopropyl-4-methylbenzamide] | 0.201 | 0.107 | 0.1 | 3910
Nc1ncnc2c1c(C#Cc1cc(C(=O)NC3CC3)ccc1F)cn2CC(F)(F)F [cmpd 54, 3-{[4-amino-7-(2,2,2-trifluoroethyl)-7H-pyrrolo[2,3-d]pyrimidin-5-yl]ethynyl}-N-cyclopropyl-4-fluorobenzamide] | 0.068 | 0.053 | 0.02 | 3290
Nc1ncnc2c1c(C#Cc1cc(F)cc(C(=O)NC3CC3)c1)cn2CC(F)(F)F [cmpd 59, 3-{[4-amino-7-(2,2,2-trifluoroethyl)-7H-pyrrolo[2,3-d]pyrimidin-5-yl]ethynyl}-N-cyclopropyl-5-fluorobenzamide] | 0.04 | 0.048 | 0.036 | 2140
Cn1cc(C#Cc2cccc(C(=O)NC3CC3)c2)c2c(N)ncnc21 [cmpd 93, 3-[(4-amino-7-methyl-7H-pyrrolo[2,3-d]pyrimidin-5-yl)ethynyl]-N-cyclopropylbenzamide] | 0.264 | 0.241 | 0.035 | 4540
